PubChem BioAssay (NCI)
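Method: 48-hour compound exposure of cells in 96-well plates, five concentrations, linear interpolation of endpoints. Here, GI50 denotes the concentration required for 50% inhibition of growth. The concentration for full growth arrest is given as TGI.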

What was measured:
Assay in all cases: NCI-60 cell line screen, 48 h
A498 renal = test system: A498 renal
A549 NSCLC = test system: A549 NSCLC
CAKI-1 renal = test system: CAKI-1 renal
EKVX NSCLC = test system: EKVX NSCLC
HT29 colon = test system: HT29 colon
OVCAR-4 ovarian = test system: OVCAR-4 ovarian
SF-268 CNS = test system: SF-268 CNS
TK-10 renal = test system: TK-10 renal
UACC-257 melanoma = test system: UACC-257 melanoma
SNB-75 CNS = test system: SNB-75 CNS

SMILES | GI50 (A498 renal) [µM] | TGI (A498 renal) [µM] | GI50 (A549 NSCLC) [µM] | TGI (A549 NSCLC) [µM] | GI50 (CAKI-1 renal) [µM] | TGI (CAKI-1 renal) [µM] | GI50 (EKVX NSCLC) [µM] | TGI (EKVX NSCLC) [µM] | GI50 (HT29 colon) [µM] | TGI (HT29 colon) [µM] | GI50 (OVCAR-4 ovarian) [µM] | TGI (OVCAR-4 ovarian) [µM] | GI50 (SF-268 CNS) [µM] | TGI (SF-268 CNS) [µM] | GI50 (TK-10 renal) [µM] | TGI (TK-10 renal) [µM] | GI50 (UACC-257 melanoma) [µM] | TGI (UACC-257 melanoma) [µM] | GI50 (SNB-75 CNS) [µM] | TGI (SNB-75 CNS) [µM]
CCN1C(=O)N(CC)C2C1NC(=S)N2/N=C/C=C/c1ccccc1 (stereo not given) | 0.0249 | 0.146 | 0.176 | > 100 | 0.0719 | > 100 | 0.634 | > 100 | 0.111 | > 31.8 | 3.31 | > 100 | 0.32 | > 100 | 3.66 | > 100 | > 100 | > 100 |  | 
Cc1nc2sccn2c1C(=O)NNC(N)=S |  |  |  | > 100 |  | > 100 |  | > 100 |  | > 100 |  |  |  | > 100 |  | > 100 |  | > 100 |  | 
CC(C)(C)O/N=C/c1cc(NC(=S)c2ccccc2)ccc1Cl |  | 27.6 |  | 35.1 |  | 72.4 |  | 40.7 |  | 29.2 |  | 74.7 |  | 58.5 |  | 31.1 |  | 31 |  | 
Cc1ccc(C(=O)Nc2ccc(Oc3cc4cnn(C)c4cc3-c3cn[nH]c3)c(F)c2)c(=O)n1-c1ccc(F)cc1 | 0.404 | > 100 | 7.6 | > 100 | 3.25 | > 100 |  |  | 3.54 | > 100 | > 100 | > 100 | 7.21 | > 100 | 1.95 | 35.1 | 6.8 | > 100 | 5.61 | > 100
C=C1C(=O)O[C@@H]2C[C@@]3(C)[C@H](O)CCC(=C)[C@@H]3C[C@H]12 |  |  |  | 70.5 |  | 19.6 |  | 29.7 |  | 12.1 |  | 26.7 |  | 34.9 |  | 25 |  |  |  | 15.2
C1CN2CCO[SiH](O1)OCC2 |  | > 100 |  | > 100 |  | > 100 |  | > 100 |  | > 100 |  |  |  | > 100 |  | > 100 |  | > 100 |  | > 100
O=C1OC(=O)c2c1nc1ccccc1c2-c1ccccc1 |  | > 100 |  | > 100 |  | > 100 |  |  |  | > 100 |  | > 100 |  | > 100 |  | > 100 |  | > 100 |  | > 100
COc1cc([C@@H]2c3cc4c(cc3[C@H](SC(=N)N)[C@H]3COC(=O)[C@H]23)OCO4)cc(OC)c1OC |  |  | 0.305 | > 100 | 0.249 | 17.3 | 0.291 | > 100 | 0.217 |  | 0.683 | > 100 | 0.421 | > 100 | 2.48 | > 78.9 | 15.1 | > 100 | 0.477 | > 100
COc1ccc(N(CC(=O)O)N=O)cc1 |  | > 100 |  | > 100 |  | > 100 |  | > 100 |  | > 100 |  | > 100 |  | > 100 |  | > 100 |  | > 100 |  | 
N#CC(C(=O)Nc1ccccc1)C1=C(Cl)C(=O)c2ccccc2C1=O (stereo not given) |  | > 100 |  | 43.4 |  | 41.2 |  | 35.1 |  | 67.5 |  | 31 |  | 31 |  | 36.7 |  | 12.8 |  | 
OCC1OC(OC2(CO)OC(CO)C(O)C2O)C(O)C(O)C1O (stereo not given) |  |  | > 100 | > 100 | > 100 | > 100 | > 100 | > 100 | > 100 | > 100 | > 100 | > 100 | > 100 | > 100 | > 100 | > 100 | > 100 | > 100 | > 100 | > 100
Cc1ccccc1Nc1cc(O)c2c(=O)cc(-c3ccccc3)oc2c1 |  |  | 2.11 | > 100 | 2.77 | > 100 | 3.35 | > 100 | 3.25 | > 100 | 3.38 | > 100 | 4.49 | > 100 |  |  |  |  |  | 
OCc1ccc(-c2ccc(-c3ccc(CO)o3)o2)o1 | 0.18 | 0.39 | > 100 | > 100 | > 100 | > 100 |  |  | > 85.9 | > 100 | > 41.3 | > 100 | > 61.7 | > 100 | 2.63 | 19.8 | 2.85 | 11.9 | 23.2 | 79.7
CCOC(=O)[C@@H](C)C[C@H](Cc1ccccc1)NC(=O)c1csc([C@@H](C[C@H](C(C)C)N(C)C(=O)CNC(=O)[C@H]2CCCCN2C)OC(C)=O)n1 | 0.464 | 1.38 | 3.49 | > 14.3 | 0.771 | > 14.3 | 1.97 | > 14.3 | 0.467 | > 14.3 | 1.3 | > 14.3 | 4.89 | > 14.3 | > 7.9 | > 14.3 |  |  | 0.534 | > 14.3
CS(=O)(=O)OCCN1CCN(C(=O)c2ccc(Cl)c3c(Nc4ccc(S(=O)(=O)N=C(N)N)cc4)c4ccccc4nc23)CC1 |  | > 100 |  | > 100 |  | > 100 |  |  |  | > 100 |  | > 100 |  | > 100 |  | > 100 |  | > 100 |  | > 100
Cc1ccc(-n2c3nc(=O)n(C)c(=O)c-3nc3ccccc32)c(C)c1 |  |  |  | 20.4 |  | 57.7 |  | 21.6 |  | 11.7 |  | 24.6 |  | 34.8 |  | 27.2 |  | 12.6 |  | 26.7
CCOC(=O)C[C@@]12CCCN[C@]1(C)CCc1ccccc12 |  | > 100 |  | > 100 |  | > 100 |  | > 100 |  | > 100 |  | > 100 |  | > 100 |  | > 100 |  |  |  | > 100
CCC(Oc1ccc(OC)c2c1C(=O)CCC2)C(=O)O (stereo not given) |  | > 100 |  | > 100 |  |  |  | > 100 |  | > 100 |  | > 100 |  | > 100 |  | > 100 |  | > 100 |  | > 100
